Reference: patent US20130029983A1, “AMINOTHIENOPYRIDAZINE INHIBITORS OF TAU ASSEMBLY” (priority 2009, published 2013)
Where two headings read alike, the source gives them in different places.

How the values were obtained:
Type in all cases: biochemical
K18PL tau [1] = target: T1, K18PL tau (Homo sapiens, UniProt P10636, P618L); assay: K18PL tau centrifugation (sedimentation) assay, SDS-PAGE densitometry; conditions: K18PL tau centrifugation assay
T1 construct: (K18PL; amino acids 244-369); made in house
T1 sequence (P10636 561-686 P618L): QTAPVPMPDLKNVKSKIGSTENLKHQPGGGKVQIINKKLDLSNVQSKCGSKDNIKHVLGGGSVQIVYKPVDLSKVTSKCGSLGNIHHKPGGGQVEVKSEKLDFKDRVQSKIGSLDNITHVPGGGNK
Procedure: The determination of compound-induced effects on the amount of tau that remains soluble upon centrifugation, and EM visualization of tau species following incubation with test compounds, were as previously described (Crowe, A., Ballatore, C., Hyde, E., Trojanowski, J. Q., and Lee, V. M. Y. (2007) Biochemical and Biophysical Research Communications 358, 1-6).
(§1) The solubility of test compounds in the sodium acetate buffer used for subsequent fibrillization reactions was determined by turbidimetric measurements. Compounds were then evaluated in a heparin-induced tau assembly assay, in which the fibrillization of the truncated K18 tau fragment (comprised of four MT-binding repeats) bearing the P301L mutation (K18PL) found in FTDP-17, was monitored by thioflavine-T (ThT) binding and fluorescence (FIG. 3A). (Crowe, A.; et al., Identification of aminothienopyridazine inhibitors of tau assembly by quantitative high-throughput screening. Biochemistry 2009, 48, 7732-45.) The inhibitory activity of test compounds was then confirmed with an orthogonal sedimentation assay in which compound-treated fibrillizing mixtures were centrifuged and quantitation of K18PL tau in the soluble and insoluble fraction was performed by densitometric analyses of SDS-PAGE (FIG. 3B). […] Thus, the tau fibrillization assay was repeated in which both DMSO- and compound-treated mixtures were initially centrifuged for 30 min. prior to incubation (i.e., at time zero of the fibrillization reaction) to remove any pelletable material.

K18PL tau [2] = target: T1, K18PL tau; assay: Heparin-induced K18PL tau fibrillization assay monitored by ThT fluorescence; conditions: for inhibition at 80 µM / Tau ThT Assay % Inhib.: highest tested concentration (80 μM); for inhibition at 80 µM: read-out: Tau ThT Assay % Inhib.; for IC50 / Tau ThT Assay Log IC50: logarithm of IC50, K18PL tau ThT fluorescence inhibition; for IC50: read-out: Tau ThT Assay Log IC50 (converted)
Procedure: Tau fibril formation reactions were performed essentially as described (Crowe, A., Ballatore, C., Hyde, E., Trojanowski, J. Q., and Lee, V. M. Y. (2007) Biochemical and Biophysical Research Communications 358, 1-6). K18PL (2 μl of a 30 μM stock that also contained 0.24 μM Alexa Red-labeled K18PL) was dispensed into black 1536-well plates (Grenier) using a solenoid-based dispenser. Following transfer of 23 nL of test compound or DMSO vehicle by a pin tool from compound library plates, 2 μl/well of 40 μM heparin in reagent buffer was dispensed and the plate was centrifuged for 15 s at 1000 rpm in a table-top centrifuge. The fibrillization reaction proceeded for 6 hours at 37° C. in a humidified incubator (Kalypsys).
K18PL fibril formation was quantified with a ThT assay as previously described (Crowe, A., Ballatore, C., Hyde, E., Trojanowski, J. Q., and Lee, V. M. Y. (2007) Biochemical and Biophysical Research Communications 358, 1-6). Briefly, 1 μl/well of 62.5 μM ThT (Sigma) in 100 mM glycine, pH 8.5 (12.5 μM final concentration) was dispensed into 1536-well plates after completion of the fibrillization reaction and incubated at room temperature for 1 hour. Plates were read on an Envision fluorescence plate reader with an excitation of 450 nm and an emission setting of 510 nm.
Compound effects on tau assembly were determined for the ThT and FP assays using the formula 1−(Fcompound− FDMSO)/( Fcontrol− FDMSO), where Fcontrol denotes the median plate fluorescence values (ThT assay) or mP values (FP assay) of the non-fibrillizing K18 KD control wells, FDMSO denotes the median value of the DMSO control wells, and Fcompound denotes the compound well values. The resulting values were multiplied by 100 to obtain the percent inhibition of tau fibril formation.
as §1

Aβ(1-42) = target: T2, Aβ(1-42) (Homo sapiens, UniProt P05067); assay: Aβ(1-42) fibrillization assay (ThT); conditions: Table 3, highest tested concentration (80 μM); for inhibition at 80 µM: read-out: Aβ42 ThT Assay % Inhib.
T2 construct: Synthetic Aβ(1-42) peptide (rPeptide); purchased rPeptide
T2 sequence (P05067 672-713 limits assumed): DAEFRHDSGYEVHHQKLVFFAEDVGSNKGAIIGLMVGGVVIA

[3] = Table 3, NC = not calculated due to insufficient activity

| Tau Cent. Assay % Soluble (K18PL tau [1]; Table 4) [%] | inhibition at 80 µM (K18PL tau [2]; Table 4) [%] | Tau Cent. Assay % Soluble (K18PL tau [1]; Table 3) [%] | inhibition at 80 µM (Aβ(1-42)) [%] | inhibition at 80 µM (K18PL tau [2]; Table 3) [%] | IC50 (K18PL tau [2]; [3]) [µM] | SMILES | further results |
| --- | --- | --- | --- | --- | --- | --- | --- |
| 63 | 89 | – | – | – | – | CCOC(=O)c1nn(-c2ccc(I)cc2)c(=O)c2c(N)scc12 [CNDR-51404, Ethyl 5-amino-3-(4-iodophenyl)-4-oxo-3,4-dihydrothieno[3,4-d]pyridazine-1-carboxylate] | IC50 (K18PL tau [2]; Table 4): 2.51 µM |
| 44 | – | – | – | – | – | Nc1scc2c(-c3ccccc3)nn(-c3ccc(Cl)cc3)c(=O)c12 [CNDR-51405] | Tau ThT Assay % Inhib. (K18PL tau [2]; Table 4): 85%; Tau ThT Assay Log IC50 (K18PL tau [2]; Table 4): −6.0 |
| 62 | 92 | – | – | – | – | CCOC(=O)c1nn(-c2ccc(Cl)cc2)c(=O)c2c(N)sc(Br)c12 [CNDR-51411, Ethyl 5-amino-7-bromo-3-(4-chlorophenyl)-4-oxo-3,4-dihydrothieno[3,4-d]pyridazine-1-carboxylate] | Tau ThT Assay Log IC50 (K18PL tau [2]; Table 4): −5.4 |
| 58 | 82 | – | – | – | – | CCOC(=O)c1nn(-c2ccccc2C)c(=O)c2c(N)scc12 [CNDR-51424, Ethyl 5-amino-4-oxo-3-(o-tolyl)-3,4-dihydrothieno[3,4-d]pyridazine-1-carboxylate] | IC50 (K18PL tau [2]; Table 4): 1.26 µM |
| 61 | 87 | – | – | – | – | CCOC(=O)c1nn(-c2ccccc2Cl)c(=O)c2c(N)scc12 [CNDR-51425, Ethyl 5-amino-3-(2-chlorophenyl)-4-oxo-3,4-dihydrothieno[3,4-d]pyridazine-1-carboxylate] | IC50 (K18PL tau [2]; Table 4): 5.01 µM |
| 77 | 82 | – | – | – | – | Nc1scc2c(C(=O)NCCO)nn(-c3ccc(Cl)cc3)c(=O)c12 [CNDR-51433, 5-Amino-3-(4-chlorophenyl)-N-(2-hydroxyethyl)-4-oxo-3,4-dihydrothieno[3,4-d]pyridazine-1-carboxamide] | IC50 (K18PL tau [2]; Table 4): 3.98 µM |
| 56 | – | – | – | – | – | CCOC(=O)c1nn(-c2ccc(C)cc2C)c(=O)c2c(N)scc12 [CNDR-51434] | Tau ThT Assay % Inhib. (K18PL tau [2]; Table 4): 87%; Tau ThT Assay Log IC50 (K18PL tau [2]; Table 4): −5.7 |
| 65 | 78 | – | – | – | – | CCOC(=O)c1nn(-c2ccccc2-c2ccccc2)c(=O)c2c(N)scc12 [CNDR-51435, Ethyl 3-([1,1′-biphenyl]-2-yl)-5-amino-4-oxo-3,4-dihydrothieno[3,4-d]pyridazine-1-carboxylate] | IC50 (K18PL tau [2]; Table 4): 0.794 µM |
| 41 | 48 | – | – | – | – | CCOC(=O)c1nn(-c2ccccc2F)c(=O)c2c(N)scc12 [CNDR-51439, Ethyl 5-amino-3-(2-fluorophenyl)-4-oxo-3,4-dihydrothieno[3,4-d]pyridazine-1-carboxylate] | IC50 (K18PL tau [2]; Table 4): 0.794 µM |
| 59 | 75 | – | – | – | – | CCN(CC)C(=O)c1nn(-c2ccc(OC)cc2)c(=O)c2c(N)scc12 [CNDR-51443, 5-Amino-N,N-diethyl-3-(4-methoxyphenyl)-4-oxo-3,4-dihydrothieno[3,4-d]pyridazine-1-carboxamide] | IC50 (K18PL tau [2]; Table 4): 7.94 µM |
| – | – | 0 | – | – | – | CCOC(=O)c1nn(-c2ccc(OC)cc2)c(=O)c2c(NC(=O)Cc3ccccc3)scc12 [Compound 9a] | Tau ThT Assay % Inhib. (K18PL tau [2]; Table 3): 31% |
| – | – | 11 | – | 27 | – | CCOC(=O)c1nn(-c2ccccc2)c(=O)c2c(NC(C)=O)scc12 [Compound 9b] | – |
| – | – | 2 | -7 | 8 | – | CCOC(=O)c1nn(-c2ccccc2)c(=O)c2c(NC(=O)c3ccccc3)scc12 [Compound 9c] | – |

The next lines start with the compound.

| SMILES | Tau Cent. Assay % Soluble (K18PL tau [1]; Table 4) [%] | inhibition at 80 µM (K18PL tau [2]; Table 4) [%] | Tau Cent. Assay % Soluble (K18PL tau [1]; Table 3) [%] | inhibition at 80 µM (Aβ(1-42)) [%] | inhibition at 80 µM (K18PL tau [2]; Table 3) [%] | IC50 (K18PL tau [2]; [3]) [µM] | further results |
| --- | --- | --- | --- | --- | --- | --- | --- |
| CCOC(=O)c1nn(-c2ccccc2)c(=O)c2c(N)scc12 [Compound 5a] | – | – | 55 | – | – | – | Aβ42 ThT Assay % Inhib. (Aβ(1-42)): −1%; Tau ThT Assay % Inhib. (K18PL tau [2]; Table 3): 80%; Tau ThT Assay Log IC50 (K18PL tau [2]; [3]): −5.2 |
| CCOC(=O)c1nn(-c2ccc(C)c(C)c2)c(=O)c2c(N)scc12 [Compound 5c] | – | – | 28 | 7 | 48 | – | – |
| CCOC(=O)c1ccc(-n2nc(C(=O)OCC)c3csc(N)c3c2=O)cc1 [Compound 5e] | – | – | 23 | 4 | 29 | – | – |
| CCOC(=O)c1nn(-c2ccccc2)c(=O)c2c(N)sc(C)c12 [Compound 5f] | – | – | 4 | 21 | 35 | – | – |
| CCOC(=O)c1nn(-c2ccc(Cl)c(Cl)c2)c(=O)c2c(N)scc12 [Compound 5g] | – | – | 12 | 6 | 29 | – | – |
| CCOC(=O)c1nn(-c2ccc(C)cc2)c(=O)c2c(N)scc12 [Compound 5h] | – | – | 35 | 12 | 51 | 126 | – |
| Nc1scc2c(C(=O)O)nn(-c3ccccc3)c(=O)c12 [Compound 6a] | – | – | 84 | 20 | 92 | 7.94 | – |
| COc1ccc(-n2nc(C(=O)O)c3csc(N)c3c2=O)cc1 [Compound 6b] | – | – | 95 | 1 | 94 | 2.51 | – |
| Nc1scc2c(C(=O)NCc3ccccc3)nn(-c3ccccc3)c(=O)c12 [Compound 8a] | – | – | 54 | 27 | 80 | 7.94 | – |
| Nc1scc2c(C(=O)N3CCOCC3)nn(-c3ccccc3)c(=O)c12 [Compound 8b] | – | – | 89 | 0 | 81 | 15.8 | – |
| NC(=O)c1nn(-c2ccccc2)c(=O)c2c(N)scc12 [Compound 8c] | – | – | 89 | 16 | 93 | 6.31 | – |
| CCN(CC)C(=O)c1nn(-c2ccc(OC)cc2)c(=O)c2c(N)scc12 [Compound 8d] | – | – | 99 | 35 | 95 | 10 | – |
| COC(=O)c1nn(-c2cccc(C(F)(F)F)c2)c(=O)c2c(N)scc12 [Compound 19] | – | – | 41 | – | 66 | 10 | – |
